pEC50: −log10 of the molar value.
Experiments:
chronic infarct rat = experiment: Norepinephrine-induced LV diastolic dysfunction in chronic infarct rat; assay type: in vivo
Excerpt: Male Wistar rats were used. After induction of anesthesia with 3% isoflurane inhalation, a polyethylene tube was inserted into the trachea. Respiration was subsequently controlled with an artificial ventilator with maintenance of anesthesia using 1.7% isoflurane. The chest was opened at the left third intercostals space and the pericardial membrane was incised. The left anterior descending coronary artery (LAD) was completely ligated with silk string (6.0, Ethicon) in the infarction group. Following this procedure, the chest was immediately closed, the inserted tube in the trachea was removed, and subjects returned to the breeding room after arousal.
Two months after operation, animals were again anesthetized and intubated as described above. A micronanometer-tipped pressure catheter (2F, Millar Instruments) was inserted into the right common carotid artery into the left ventricle (LV) and a polyethylene catheter (SP10) for solution injection was inserted from the right femoral vein to infuse the physiological salt solution (PSS) or test compound solutions. After confirming stable hemodynamics for 10 minutes, 20 μg/kg/min of norepinephrine was infused for 30 minutes in the chronic infarction group. The invention compound [III] (0.1 mg/kg/min) and PSS were infused for 10 minutes after 20 minutes of administration of norepinephrine at 16.6 μL/min for test and control groups, respectively. LV minimum diastolic pressure and LV end-diastolic pressure was counted every minute for 20 heart beats. The area of myocardial infarction (infarction size) in rats was estimated using the modified method of Sandmann et al (J Cardiovasc Pharmacol 2000; 37; 64-77.) for administration of the compound of the present invention and PSS. That is, the infarct size (%) was estimated using the followed formula: […]
Data is shown as means and standard error. The following results are shown in Table 4 (control) and Table 5 (the compound), respectively.

normal rat = experiment: LV diastolic function in normal rat (LV catheter, i.v. infusion); assay type: in vivo; conditions: 0.1 mg/kg/min i.v. infusion for 10 minutes, before administration set at 100%, mean and standard deviation
Excerpt: (1) After breeding for 1 week, male Wistar rats were anesthetized with 3% isoflurane inhalation, followed by an insertion of a tube in the trachea and respiration subsequently controlled with an artificial ventilator using 1.7% isoflurane for maintained anesthetization. A micrometer-tipped pressure catheter (Manufactured by 2F, Millar Instruments) was inserted from the right common carotid artery into the left ventricle (LV) and a polyethylene catheter (SP10) was inserted into the right femoral vein for the compound of the present invention or physiological salt solution (PSS) injections. After confirming stable hemodynamics for 10 minutes, LV minimum diastolic pressure and LV end-diastolic pressure was counted every minute. The compound [III] (0.1 mg/kg/min) of the present invention or PSS was infused at 16.6 μL/min for 10 minutes in the test and control groups, respectively.
LV minimum diastolic pressure and LV end-diastolic pressure was counted every minute for 20 heart beats before and after administration of the compound. […] Data is shown as mean and standard deviation.

Male Wistar rats [1] = experiment: Comparison of heart rate, LV pressure and LV diastolic function (-dP/dt) in anesthetized rats; assay type: in vivo, rat; conditions: for Heart rate after administration / LV diastolic function (−dP/dt) after administration / LV pressure after administration: 0.3 mg/kg/min i.v. for 5 minutes, anesthetized rats; for LV diastolic function (−dP/dt) before administration / LV pressure before administration / Heart rate before administration: baseline of the same rats before infusion; for Heart rate before administration: four rats per group
Excerpt: Male Wistar rats weighing 280-300 g were bred. After one week, animals were anesthetized with 3% isoflurane inhalation and respiration was subsequently controlled with an artificial ventilator using 1.7% isoflurane for maintained anesthetization. A micronanometer-tipped pressure catheter (2F, Millar Instruments) was inserted from the right common carotid artery into the left ventricle (LV) and a polyethylene catheter (SP10) for solution injection was inserted from the right femoral vein and the compounds [III] and [II] (R═H) were injected. After confirming stable hemodynamics for 10 minutes, heart rate, LV pressure, and maximal negative first derivative of LV pressure (−dP/dt) were investigated continuously. Each compound [III] or [II] was infused at 0.3 mg/kg/min for 5 minutes. Four rats in each group were evaluated. The solvent used consisted of 0.05% citric acid and 5% sorbitol. Each parameter before and after 5 minutes of administration was determined for 20 heart beats.

Male Wistar rats [2] = experiment: Norepinephrine-induced hypertension in rats, LV pressure; assay type: in vivo, rat; conditions: under norepinephrine 20 μg/kg/min
Description: Male Wistar rats weighing 260 g were anesthetized with 3% isoflurane inhalation and respiration was subsequently controlled with an artificial ventilator using 1.7% isoflurane for maintained anesthetization. A micronanometer-tipped pressure catheter (2F, Millar Instruments) was inserted from the right common carotid artery into the left ventricle (LV) and a polyethylene catheter (SP 10) for solution injection was inserted from the right femoral vein and test solutions were injected. After confirming stable hemodynamics for 10 minutes, norepinephrine (20 μg/kg/min) was infused for 10 minutes followed by the infusion of the invention compound [III] (0.1 mg/kg/min) for 10 minutes. This invention compound [III] was infused three times with intervals of 10 minutes each. LV pressure was determined for 20 heart beats before and after administration. The infusion speed of each solution was 16.6 μL/min.

[3] = Stability of the compound at room temperature; assay type: physicochemical; conditions: exposure to oxygen, humidity, acid and alkali at room temperature
Solubility in solvents = assay type: physicochemical
Excerpt: The compound of the present invention, 3-4-benzylpiperidin-1-yl)propionyl-7-methoxy-2,3,4,5-tetrahydro-1,4-benzothiazepine-1-oxide, which is produced by an oxidation of the hydrochloride salt represented by formula [V] by the oxidant, isolated by silica gel chromatography using chloroform-methanol as a solvent, followed by removed the solvent from the chloroform-methanol solution by azeotropic distillation, and finally removed by the residual solvent in argon. The purity of compound presented by formula [III], thus obtained is 90% or higher, and a molecular weight (mw) of the compound is 440.61. […] The compound has stereoisomers in the amide form, is confirmed to exist at the rate of about 2:3 in of amide parts using H-NMR analysis at room temperature.

[4] = test system: left anterior descending coronary artery of porcine heart; experiment: Coronary relaxation of KCl-contracted porcine coronary artery strip (organ bath); conditions: Sus scrofa, read-out: concentration inducing 50% of relaxation (EC50%)
Description: Porcine heart was purchased without regard of gender. The heart was carried in steep, cool Krebs-Henseleit solution, filled with 95% bubbling oxygen (O2) gas and bicarbonate (CO2) and the left anterior descending coronary artery of 2.5-3 mm diameter was removed. The artery was steeped in the same nutrition solution overnight in a refrigerator and the next day a specimen from a short strip removal in the endothelium (open ring) of width 3 mm was obtained. The specimen was hanged in 10 ml of the organ bath filled with Krebs-Henseleit solution, 95% bubbling oxygen (O2) and bicarbonate (CO2) at 37° C. One side was fixed and the other side was connected to the isometric transducer (T7-8-240, T7-30-240, Olientic) and the change of tension on the amplifier was used for tension recording. After confirming the state for 120 minutes under 1.5 g loading, KCl (40 mM) was added. When the contraction reached a maximum, KCl was washed out. This wash-out was repeated 4 times during the course of 15 minutes. After the stable contraction of KCl was obtained, KCl (30 mM) dissolved in saline was added. […] The Krebs-Henseleit solution without the compounds served as the control.

[5] = chronic infarct rat, baseline before norepinephrine infusion
[6] = chronic infarct rat, norepinephrine 20 μg/kg/min infusion
[7] = chronic infarct rat under norepinephrine 20 μg/kg/min, 0.1 mg/kg/min infused 10 minutes, before administration set at 100%, mean and standard error

NC[C@H](O)c1ccc(O)c(O)c1 [Norepinephrine, norepinephrine]
LV end-diastolic pressure before administration of Norepinephrine (chronic infarct rat; [5]): 6.5 ± 0.7 mmHg | LV minimum diastolic pressure before administration of Norepinephrine (chronic infarct rat; [5]): 4.5 ± 0.8 mmHg | LV end-diastolic pressure after administration of Norepinephrine (chronic infarct rat; [6]): 25.8 ± 1.1 mmHg | LV minimum diastolic pressure after administration of Norepinephrine (chronic infarct rat; [6]): 18.5 ± 1.2 mmHg

COc1ccc2c(c1)CN(C(=O)CCN1CCC(Cc3ccccc3)CC1)CC[S+]2[O-] (stereo not drawn) [compound [III], 4-[3-(4-benzylpiperidin-1-yl)propionyl]-7-methoxy-2,3,4,5-tetrahydro-1,4-benzothiazepine-1-oxide]
LV end-diastolic pressure after administration (normal rat): 78.4 ± 6.6% | LV minimum diastolic pressure after administration (normal rat): 76.0 ± 5.2% | LV end-diastolic pressure after administration (chronic infarct rat; [7]): 78.4 ± 6.6% | LV minimum diastolic pressure after administration (chronic infarct rat; [7]): 76.0 ± 5.2% | Heart rate after administration (Male Wistar rats [1]): 360.9±29.1 beat/min | LV diastolic function (−dP/dt) after administration (Male Wistar rats [1]): −5982.6±520.1 mmHg/sec | LV pressure after administration (Male Wistar rats [1]): 106.3±5.5 mmHg | LV diastolic function (−dP/dt) before administration (Male Wistar rats [1]): −5631.4±395.9 mmHg/sec | LV pressure before administration (Male Wistar rats [1]): 106.0±5.8 mmHg | Heart rate before administration (Male Wistar rats [1]): 361.7±26.5 beat/min | LV pressure before administration (Male Wistar rats [2]; before compound infusion): 189.2±14.0 mmHg | LV pressure after administration (Male Wistar rats [2]; compound 0.1 mg/kg/min for 10 minutes, infused three times): 180.3±14.9 mmHg | stability [3]: stable against exposure of oxygen, humidity, acid and alkali at room temperature | solubility in solvents (Solubility in solvents): easily dissolved in ethanol and dimethysulfoxide (DMSO) | skin irritation (Skin irritation): irritating to the skin | pEC50 [4]: 4.38

COc1ccc2c(c1)CN(C(=O)CCN1CCC(Cc3ccccc3)CC1)CCS2 [compound [II] (R═H), 4-[3-(4-benzylpiperidin-1-yl)propionyl]-7-methoxy-2,3,4,5-tetrahydro-1,4-benzothiazepine, reference compound]
Heart rate after administration (Male Wistar rats [1]): 320.2±24.2 beat/min | LV diastolic function (−dP/dt) after administration (Male Wistar rats [1]): −5311.0±961.4 mmHg/sec | LV pressure after administration (Male Wistar rats [1]): 100.8±6.0 mmHg | LV diastolic function (−dP/dt) before administration (Male Wistar rats [1]): −5973.4±1121.3 mmHg/sec | LV pressure before administration (Male Wistar rats [1]): 103.7±4.2 mmHg | Heart rate before administration (Male Wistar rats [1]): 370.1±18.9 beat/min

COc1ccc2c(c1)CN(C(=O)CCN1CCC(Cc3ccc(O)cc3)CC1)CC[S+]2[O-] (stereo not drawn) [compound [IV], 4-{3-[4-(4-hydroxybenzyl)piperadin-1-yl]propionyl}-7-methoxy-2,3,4,5-tetrahydro-1,4-benzothiazepine-1-oxide]
pEC50 [4]: 4.00
